Reference: ChEMBL document CHEMBL1212870, “Concise synthesis of 5,6-dihydrovaltrate leading to enhanced Rev-export inhibitory congener” (Bioorg Med Chem, 2010)

Experiment: Inhibition of hemagglutininin-tagged HIV1 Rev protein nuclear export in human HeLa cells assessed as localization by indirect fluorescent antibody technique
Format: cell-based, Human immunodeficiency virus 1

IC50 | SMILES
2500 nM | CC(=O)OCC1=CO[C@@H](OC(=O)CC(C)C)[C@H]2C1=C[C@H](OC(=O)CC(C)C)[C@]21CO1 [VALTRATE]
2600 nM | CC(=O)OCC1=CO[C@@H](OC(=O)CC(C)C)[C@H]2[C@@H]1C[C@H](OC(C)=O)[C@]21CO1
3300 nM | CCCCOCC1=CO[C@@H](OC(=O)CC(C)C)[C@H]2[C@@H]1C[C@H](OC(=O)CC(C)C)[C@]21CO1
4400 nM | CC(=O)OCC1=CO[C@@H](OC(=O)CC(C)C)[C@H]2[C@@H]1C[C@H](OC(=O)CC(C)C)[C@]21CO1
1000 nM | CC(=O)OCC1=CO[C@@H](OC(C)=O)[C@H]2[C@@H]1C[C@H](OC(=O)CC(C)C)[C@]21CO1
